Laboratory results: patent US20090311217A1, “3-SUBSTITUTED-1H-INDOLE COMPOUNDS, THEIR USE AS MTOR KINASE AND PI3 KINASE INHIBITORS, AND THEIR SYNTHESES” (priority 2008, published 2009)

Assays:
PI3K-alpha = PI3K-alpha (Homo sapiens, UniProt P42336); assay: PI3K-alpha fluorescence polarization assay; type: biochemical; conditions: read-out: PI3Kα Avg. IC50
PI3K-gamma = PI3K-gamma (Homo sapiens, UniProt P48736); assay: PI3K-gamma fluorescence polarization assay; type: biochemical; conditions: PI3Kγ Avg. IC50
PI3K-gamma, sequence (P48736 whole entry, species assumed): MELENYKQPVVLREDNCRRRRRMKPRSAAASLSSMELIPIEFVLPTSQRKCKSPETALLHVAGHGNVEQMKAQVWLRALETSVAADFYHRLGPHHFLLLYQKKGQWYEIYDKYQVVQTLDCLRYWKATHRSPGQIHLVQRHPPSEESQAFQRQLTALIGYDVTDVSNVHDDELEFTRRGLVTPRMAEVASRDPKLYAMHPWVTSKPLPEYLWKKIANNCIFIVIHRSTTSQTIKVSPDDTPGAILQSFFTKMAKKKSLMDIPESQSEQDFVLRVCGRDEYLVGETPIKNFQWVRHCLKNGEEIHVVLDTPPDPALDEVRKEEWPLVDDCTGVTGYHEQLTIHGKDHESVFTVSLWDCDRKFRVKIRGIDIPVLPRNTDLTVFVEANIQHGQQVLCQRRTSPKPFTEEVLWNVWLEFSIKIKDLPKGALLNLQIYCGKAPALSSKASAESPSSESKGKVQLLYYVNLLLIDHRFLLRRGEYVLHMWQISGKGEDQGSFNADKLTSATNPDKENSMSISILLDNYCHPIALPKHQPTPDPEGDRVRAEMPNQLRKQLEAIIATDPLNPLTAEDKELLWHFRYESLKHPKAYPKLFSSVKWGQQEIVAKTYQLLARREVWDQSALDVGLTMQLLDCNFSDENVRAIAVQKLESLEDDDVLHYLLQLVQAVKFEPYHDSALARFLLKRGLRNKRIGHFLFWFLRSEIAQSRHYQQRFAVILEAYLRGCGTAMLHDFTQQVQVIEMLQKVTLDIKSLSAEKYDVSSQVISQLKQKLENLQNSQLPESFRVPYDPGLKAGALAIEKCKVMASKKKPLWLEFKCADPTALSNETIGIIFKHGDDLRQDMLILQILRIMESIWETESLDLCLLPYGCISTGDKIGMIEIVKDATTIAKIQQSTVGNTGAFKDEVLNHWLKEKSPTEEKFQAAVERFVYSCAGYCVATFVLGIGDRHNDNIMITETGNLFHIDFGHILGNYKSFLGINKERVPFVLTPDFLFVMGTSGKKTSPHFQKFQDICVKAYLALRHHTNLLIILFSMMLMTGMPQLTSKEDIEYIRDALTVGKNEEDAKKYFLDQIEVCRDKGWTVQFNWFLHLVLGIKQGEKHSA
Procedure: PI3K-Alpha, PI3K-Beta, PI3K-Gamma, and PI3K-delta Fluorescence Polarization Assay Protocols
PI3-Kinase reactions were performed in 5 mM HEPES, pH 7, 2.5 mM MgCl2, and 25 μM ATP, with diC8-PI(4,5)P2 (Echelon, Salt Lake City Utah) as substrate. Nunc 384-well black polypropylene fluorescent plates were used for PI3K assays. Reactions were quenched by the addition of EDTA to a final concentration of 10 mM. Final reaction volumes were 10 μl. For evaluation of PI3K inhibitors, 5 ng of enzyme (PI3K-alpha, beta, gamma, or delta) and 2.5 μM of substrate was used per […] reaction volume, and inhibitor concentrations ranged from 100 μM to 20 μM; the final level of DMSO in reactions never exceeded 2%. Reactions were allowed to proceed for one hour at 25° C. After 1 hour, GST-tagged GRP1 (general receptor for phosphoinositides) PH domain fusion protein was added to a final concentration of 100 nM, and BODIPY-TMRI(1,3,4,5)P4 (Echelon) was also added to a final concentration of 5 nM. Final sample volumes were 25 μl with a final DMSO concentration of 0.8%. Assay Plates were read on Perkin-Elmer Envision plate readers with appropriate filters for Tamra [BODIPY-TMRI(1,3,4,5)P4]. Data obtained were used to calculate enzymatic activity and enzyme inhibition by inhibitor compounds.

PI3K-alpha, sequence (P42336 whole entry, species assumed): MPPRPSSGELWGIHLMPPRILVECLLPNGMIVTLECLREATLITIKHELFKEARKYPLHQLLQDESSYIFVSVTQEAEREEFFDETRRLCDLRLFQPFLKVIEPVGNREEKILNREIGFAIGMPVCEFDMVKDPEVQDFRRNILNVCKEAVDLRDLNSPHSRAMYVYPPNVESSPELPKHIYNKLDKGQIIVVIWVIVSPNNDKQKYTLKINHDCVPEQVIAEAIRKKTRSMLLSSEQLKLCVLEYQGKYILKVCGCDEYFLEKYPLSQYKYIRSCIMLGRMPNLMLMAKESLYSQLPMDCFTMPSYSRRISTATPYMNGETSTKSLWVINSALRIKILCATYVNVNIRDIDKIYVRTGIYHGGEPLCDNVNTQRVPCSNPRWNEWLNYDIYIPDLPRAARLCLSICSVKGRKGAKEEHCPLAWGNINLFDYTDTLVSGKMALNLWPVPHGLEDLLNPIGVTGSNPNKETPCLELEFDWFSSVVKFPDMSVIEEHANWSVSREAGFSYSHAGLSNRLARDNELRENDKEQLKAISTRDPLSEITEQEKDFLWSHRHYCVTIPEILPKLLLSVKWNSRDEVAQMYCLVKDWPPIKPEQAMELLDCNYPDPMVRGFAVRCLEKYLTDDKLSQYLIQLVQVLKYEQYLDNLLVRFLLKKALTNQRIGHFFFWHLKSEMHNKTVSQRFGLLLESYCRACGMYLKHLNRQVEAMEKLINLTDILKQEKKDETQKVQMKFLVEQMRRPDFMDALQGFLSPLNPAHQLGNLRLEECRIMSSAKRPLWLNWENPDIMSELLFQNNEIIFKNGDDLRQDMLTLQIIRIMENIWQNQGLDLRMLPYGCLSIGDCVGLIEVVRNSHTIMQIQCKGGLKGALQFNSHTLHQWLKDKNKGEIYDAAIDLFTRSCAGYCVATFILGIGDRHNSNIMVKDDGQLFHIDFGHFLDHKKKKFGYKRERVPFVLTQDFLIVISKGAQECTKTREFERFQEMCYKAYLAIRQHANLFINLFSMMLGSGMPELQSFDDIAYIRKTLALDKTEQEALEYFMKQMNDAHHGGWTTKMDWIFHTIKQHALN
PI3K-alpha, sequence (P27986 whole entry partner, species assumed): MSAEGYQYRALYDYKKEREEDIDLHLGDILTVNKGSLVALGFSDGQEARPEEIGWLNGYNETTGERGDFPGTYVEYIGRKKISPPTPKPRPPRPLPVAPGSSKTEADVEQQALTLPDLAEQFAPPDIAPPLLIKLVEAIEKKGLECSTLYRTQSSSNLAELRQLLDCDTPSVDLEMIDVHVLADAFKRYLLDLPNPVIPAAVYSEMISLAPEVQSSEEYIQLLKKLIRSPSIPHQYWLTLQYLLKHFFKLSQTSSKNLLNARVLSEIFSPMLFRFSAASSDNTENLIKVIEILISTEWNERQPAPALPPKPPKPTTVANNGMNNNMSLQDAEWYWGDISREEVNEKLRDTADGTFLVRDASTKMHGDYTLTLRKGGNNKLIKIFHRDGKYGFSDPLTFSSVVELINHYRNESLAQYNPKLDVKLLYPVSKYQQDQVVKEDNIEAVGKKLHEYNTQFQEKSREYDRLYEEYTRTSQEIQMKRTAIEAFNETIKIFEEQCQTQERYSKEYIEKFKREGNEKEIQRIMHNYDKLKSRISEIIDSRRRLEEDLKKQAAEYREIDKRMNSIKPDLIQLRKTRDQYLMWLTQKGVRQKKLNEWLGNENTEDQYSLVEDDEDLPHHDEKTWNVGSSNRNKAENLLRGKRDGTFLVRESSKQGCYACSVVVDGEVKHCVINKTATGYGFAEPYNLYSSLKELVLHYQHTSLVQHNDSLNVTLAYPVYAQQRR

Row | SMILES | IC50 (PI3K-alpha) | IC50 (PI3K-gamma)
1 | COc1ccc2[nH]cc(/C=C3\Oc4ccc(NC(=O)NC(C)C)cc4C3=O)c2c1 [Compound 486, 1-isopropyl-3-{(2Z)-2-[(5-methoxy-1H-indol-3-yl)methylene]-3-oxo-2,3-dihydro-1-benzofuran-5-yl}urea] | 1460 nM | 1610 nM
2 | CCCCNC(=O)Nc1ccc2c(c1)C(=O)/C(=C/c1c[nH]c3ccc(OC)cc13)O2 [Compound 487, 1-butyl-3-{(2Z)-2-[(5-methoxy-1H-indol-3-yl)methylene]-3-oxo-2,3-dihydro-1-benzofuran-5-yl}urea] | 10200 nM | > 10000 nM
3 | COc1ccc2[nH]cc(/C=C3\Oc4ccc(NC(=O)NC5CCCCC5)cc4C3=O)c2c1 [Compound 488, 1-cyclohexyl-3-{(2Z)-2-[(5-methoxy-1H-indol-3-yl)methylene]-3-oxo-2,3-dihydro-1-benzofuran-5-yl}urea] | > 10000 nM | > 10000 nM
4 | CCNC(=O)Nc1ccc2c(c1)C(=O)/C(=C/c1c[nH]c3ccc(OC)cc13)O2 [Compound 489, 1-ethyl-3-{(2Z)-2-[(5-methoxy-1H-indol-3-yl)methylene]-3-oxo-2,3-dihydro-1-benzofuran-5-yl}urea] | 6220 nM | > 10000 nM
5 | COC(=O)NC(=O)Nc1ccc2c(c1)C(=O)/C(=C/c1c[nH]c3ccc(OC)cc13)O2 [Compound 490, methyl ({(2Z)-2-[(5-methoxy-1H-indol-3-yl)methylene]-3-oxo-2,3-dihydro-1-benzofuran-5-yl}carbamoyl)carbamate] | 674 nM | > 10000 nM
6 | COc1ccc2[nH]cc(/C=C3\Oc4ccc(NC(=O)Nc5ccc(N(C)C)cc5)cc4C3=O)c2c1 [Compound 492, 1-[4-(dimethylamino)phenyl]-3-{(2Z)-2-[(5-methoxy-1H-indol-3-yl)methylene]-3-oxo-2,3-dihydro-1-benzofuran-5-yl}urea] | 656 nM | > 10000 nM
7 | Cn1cc(/C=C2\Oc3cc(O)cc(O)c3C2=O)c2c(N3CCOCC3)cccc21 [Compound 496, (2Z)-4,6-dihydroxy-2-[(1-methyl-4-morpholin-4-yl-1H-indol-3-yl)methylene]-1-benzofuran-3(2H)-one] | 1040 nM | 4770 nM
8 | COc1cc(-c2cccnc2)c2c(c1)c(/C=C1\Oc3cc(O)ccc3C1=O)cn2CCCC#N [Compound 502, 4-{3-[(Z)-(6-hydroxy-3-oxo-1-benzofuran-2(3H)-ylidene)methyl]-5-methoxy-7-pyridin-3-yl-1H-indol-1-yl}butanenitrile] | 592 nM | 4160 nM
9 | COc1ccc2[nH]cc(C=C3Oc4cc(O)cc(-c5ccccc5)c4C3=O)c2c1 [Compound 504, 6-hydroxy-2-[(5-methoxy-1H-indol-3-yl)methylene]-4-phenyl-1-benzofuran-3(2H)-one] | 122 nM | 541 nM
10 | COc1ccc2[nH]cc(C=C3Oc4cc(O)cc(Br)c4C3=O)c2c1 [Compound 505, 4-bromo-6-hydroxy-2-[(5-methoxy-1H-indol-3-yl)methylene]-1-benzofuran-3(2H)-one] | 120 nM | 813 nM
11 | COc1ccc2c(c1)c(/C=C1\Oc3cc(O)cc(C)c3C1=O)cn2C [Compound 507, (2Z)-6-hydroxy-2-[(5-methoxy-1-methyl-1H-indol-3-yl)methylene]-4-methyl-1-benzofuran-3(2H)-one] | 78.5 nM | 1540 nM
12 | COc1ccc2[nH]cc(/C=C3\Oc4cc(-c5nn[nH]n5)ccc4C3=O)c2c1 [Compound 509, (2Z)-2-[(5-methoxy-1H-indol-3-yl)methylene]-6-(2H-tetrazol-5-yl)-1-benzofuran-3(2H)-one] | 484 nM | 2470 nM
13 | COc1ccc2c(c1)c(/C=C1\Oc3cc(O)cc(O)c3C1=O)cn2CCCC#N [Compound 510, 4-{3-[(Z)-(4,6-dihydroxy-3-oxo-1-benzofuran-2(3H)-ylidene)methyl]-5-methoxy-1Hindol-1-yl}butanenitrile] | 8 nM | 56 nM
14 | COc1ccc2c(c1)c(/C=C1\Oc3cc(O)ccc3C1=O)cn2CCCC#N [Compound 511, 4-{3-[(Z)-(6-hydroxy-3-oxo-1-benzofuran-2(3H)-ylidene)methyl]-5-methoxy-1Hindol-1-yl}butanenitrile] | 21 nM | 154 nM
15 | CCc1cc(OC)cc2c(/C=C3\Oc4cc(O)cc(O)c4C3=O)cn(CCN3CCN(C)CC3)c12 [Compound 512, (2Z)-2-({7-ethyl-5-methoxy-1-[2-(4-methylpiperazin-1-yl)ethyl]-1H-indol-3-yl}methylene)-4,6-dihydroxy-1-benzofuran-3(2H)-one] | 36.5 nM | 1400 nM
16 | CNC(=O)c1cc(O)cc2c1C(=O)/C(=C/c1c[nH]c3ccc(OC)cc13)O2 [Compound 513, (2Z)-6-hydroxy-2-[(5-methoxy-1H-indol-3-yl)methylene]-N-methyl-3-oxo-2,3-dihydro-1-benzofuran-4-carboxamide] | 1540 nM | > 10000 nM
17 | COc1ccc2[nH]cc(/C=C3\Oc4cc(O)cc(CO)c4C3=O)c2c1 [Compound 517, (2Z)-6-hydroxy-4-(hydroxymethyl)-2-[(5-methoxy-1H-indol-3-yl)methylene]-1-benzofuran-3(2H)-one] | 82.5 nM | 714 nM

Second part, the molecule after the results:

Row | IC50 (PI3K-alpha) | IC50 (PI3K-gamma) | SMILES
18 | 465 nM | 1310 nM | COc1ccc(NC(=O)Nc2ccc3c(c2)C(=O)/C(=C/c2c[nH]c4ccc(OC)cc24)O3)cc1 [Compound 491, 1-{(2Z)-2-[(5-methoxy-1H-indol-3-yl)methylene]-3-oxo-2,3-dihydro-1-benzofuran-5-yl}-3-(4-methoxyphenyl)urea]
19 | 3 nM | 15.5 nM | CCc1c(/C=C2\Oc3cc(O)cc(O)c3C2=O)c2cc(OC)ccc2n1CCCC#N [Compound 493, 4-{3-[(Z)-(4,6-dihydroxy-3-oxo-1-benzofuran-2(3H)-ylidene)methyl]-2-ethyl-5-methoxy-1H-indol-1-yl}butanenitrile]
20 | > 10000 nM | 9350 nM | COc1ccc2[nH]cc(C=C3Oc4cc(OS(=O)(=O)C(F)(F)F)ccc4C3=O)c2c1 [Compound 494, 2-[(5-methoxy-1H-indol-3-yl)methylene]-3-oxo-2,3-dihydro-1-benzofuran-6-yl trifluoromethanesulfonate]
21 | > 10000 nM | > 10000 nM | COc1ccc2[nH]cc(C=C3Oc4cc(C(N)=O)ccc4C3=O)c2c1 [Compound 495, 2-[(5-methoxy-1H-indol-3-yl)methylene]-3-oxo-2,3-dihydro-1-benzofuran-6-carboxamide]
22 | 963 nM | 1210 nM | COc1cccc2c1c(/C=C1\Oc3cc(O)cc(O)c3C1=O)c(-c1ccccc1)n2C [Compound 497, (2Z)-4,6-dihydroxy-2-[(4-methoxy-1-methyl-2-phenyl-1H-indol-3-yl)methylene]-1-benzofuran-3(2H)-one]
23 | 63.5 nM | 392 nM | COc1cc(-c2cncnc2)c2[nH]cc(/C=C3\Oc4cc(O)ccc4C3=O)c2c1 [Compound 498, (2Z)-6-hydroxy-2-[(5-methoxy-7-pyrimidin-5-yl-1H-indol-3-yl)methylene]-1-benzofuran-3(2H)-one]
24 | 342 nM | 3560 nM | Cn1c(-c2ccccc2)c(/C=C2\Oc3cc(O)cc(O)c3C2=O)c2c([N+](=O)[O-])cccc21 [Compound 499, (2Z)-4,6-dihydroxy-2-[(1-methyl-4-nitro-2-phenyl-1H-indol-3-yl)methylene]-1-benzofuran-3(2H)-one]
25 | 701 nM | 7000 nM | COc1cc(-c2cncnc2)c2c(c1)c(/C=C1\Oc3cc(O)ccc3C1=O)cn2CCCC#N [Compound 501, 4-{3-[(Z)-(6-hydroxy-3-oxo-1-benzofuran-2(3H)-ylidene)methyl]-5-methoxy-7-pyrimidin-5-yl-1H-indol-1-yl}butanenitrile]
26 | 106 nM | 811 nM | COc1cc(-c2cncnc2)c2c(c1)c(/C=C1\Oc3cc(O)cc(O)c3C1=O)cn2CCCC#N [Compound 503, 4-{3-[(Z)-(4,6-dihydroxy-3-oxo-1-benzofuran-2(3H)-ylidene)methyl]-5-methoxy-7-pyrimidin-5-yl-1H-indol-1-yl}butanenitrile]
27 | 133 nM | 1510 nM | CCc1cc(O)cc2c1C(=O)C(=Cc1c[nH]c3ccc(OC)cc13)O2 [Compound 506, 4-ethyl-6-hydroxy-2-[(5-methoxy-1H-indol-3-yl)methylene]-1-benzofuran-3(2H)-one]
28 | 8500 nM | > 10000 nM | COc1ccc2[nH]cc(/C=C3\Oc4cc(C#N)ccc4C3=O)c2c1 [Compound 508, (2Z)-2-[(5-methoxy-1H-indol-3-yl)methylene]-3-oxo-2,3-dihydro-1-benzofuran-6-carbonitrile]
29 | 1380 nM | 4100 nM | COc1ccc2c(c1)c(/C=C1\Oc3ccc(O)cc3C1=O)cn2CCCC#N [Compound 514, 4-{3-[(Z)-(5-hydroxy-3-oxo-1-benzofuran-2(3H)-ylidene)methyl]-5-methoxy-1Hindol-1-yl}butanenitrile]
30 | 1170 nM | 2510 nM | COc1ccc2c(c1)c(/C=C1\Oc3ccc(O)cc3C1=O)cn2CCCN(C)C [Compound 515, (2Z)-2-({1-[3-(dimethylamino)propyl]-5-methoxy-1H-indol-3-yl}methylene)-5-hydroxy-1-benzofuran-3(2H)-one]
